Activity calls are given as the source filed them. No cut-off for these calls is given here.
Legend:
[1] = Half life at pH 2.0; assay type: ADME; conditions: buffer
[2] = Half life at pH 7.3; assay type: ADME; conditions: buffer
[3] = Half life at pH 1.2; assay type: ADME; conditions: buffer
[4] = target: Human immunodeficiency virus type 1 reverse transcriptase (Human immunodeficiency virus 1) (UniProt Q72547); experiment: Inhibitory activity against human immunodeficiency virus-1 reverse transcriptase (HIV-1 RT)
[5] = Partition coefficient (logP); assay type: physicochemical; conditions: octanol/water
[6] = target: Human immunodeficiency virus type 1 reverse transcriptase (Human immunodeficiency virus 1) (UniProt Q72547); experiment: Inhibitory activity against human immunodeficiency virus-1 reverse transcriptase (HIV-1 RT) at a concentration up to 10 uM; IA=Inactive
[7] = target: Human immunodeficiency virus type 1 reverse transcriptase (Human immunodeficiency virus 1) (UniProt Q72547); experiment: Inhibitory activity against human immunodeficiency virus-1 reverse transcriptase (HIV-1 RT) at a concentration up to 100 uM; IA-Inactive

SMILES | half-life [1] | half-life [2] | half-life [3] | IC90 [4] | logP [5] | Activity [6] | Activity [7]
Cc1cn([C@H]2C=C[C@@H](CO)O2)c(=O)[nH]c1=O [STAVUDINE] | 5 days | 6 days | 3 days | 100 nM | -0.77 | – | –
Cc1cn([C@@H]2O[C@H](CO)c3ccccc32)c(=O)[nH]c1=O | 31 days | 34 days | 18 days | – | 0.55 | inactive | –
Cc1cn([C@@H]2O[C@H](COP(=O)(O)OP(=O)(O)OP(=O)(O)O)c3ccccc32)c(=O)[nH]c1=O | – | – | – | – | – | – | inactive
